Results: patent US8309721B2, “HSP90 inhibitory carbazole derivatives, compositions containing same and use thereof” (Sanofi, priority 2008, dated 2012)
Counter-ions that a name gives are not always drawn.

Tested on: Her2 receptor expression at the surface of SKBr3 cells
Assay: phenotypic SKBr3/HER2 cell test (Her2 surface expression by flow cytometry)
Assay type: cell-based
Details: Homo sapiens, SK-BR-3, 24 h incubation, inhibition of Her2 expression
Description: The cellular activity of the compounds can in particular be evaluated by means of the phenotypic “SKBr3/HER2” cell test described below:
The SKBr3 […] adenocarcinoma cells, overexpressing the Her2 tyrosine kinase receptor, originate from the ATCC (HTB-30) and are cultured in McCoy's 5A medium supplemented with 10% FBS and 1% L-glutamine.
The cells are seeded in 12-well plates at a proportion of 125 000 cells per well in 1 ml of complete medium. The following day, the products are added at varying concentrations. After incubation for 24 h, the cells are trypsinized, washed with PBS and incubated with 100 ng of anti-Her2 antibody coupled to PE (Phycoerythrin) (BD 340552) for 30 minutes at 4° C. in the dark. The fluorescence due to the expression of the Her2 receptor at the surface of the cells is then read using a FACS Calibur flow cytometer (Becton-Dickinson). The percentage inhibition of Her2 expression as a function of the concentrations of product tested is fitted by the nonlinear regression technique (XLfit, equation 205) in order to measure an IC50 for each product.

Compound | IC50 [nM]
CN1C2CCC1CC(Nc1cc(-n3c4ccccc4c4c(-c5ccc(C#N)nc5)cccc43)ccc1C(N)=O)C2 (stereo not shown) [Example 135, 4-[4-(6-cyanopyridin-3-yl)-9H-carbazol-9-yl]-2-[(8-methyl-8-azabicyclo[3.2.1]oct-3-yl)amino]benzamide] | < 1000
Cn1cnc(CCNc2cc(-n3c4ccccc4c4c(-c5nc6ccc(F)cc6[nH]5)cccc43)ccc2C(N)=O)c1 [Example 117, 4-[4-(6-fluoro-1H-benzimidazol-2-yl)-9H-carbazol-9-yl]-2-[(1-methyl-1H-imidazol-4-yl)ethylamino]benzamide] | < 1000
NC(=O)c1ccc(-n2c3ccccc3c3c(-c4cnc5ccccc5c4)cccc32)cc1NCc1ccccn1 [Example 86, 2-[(pyridin-2-ylmethyl)amino]-4-[4-(quinolin-3-yl)-9H-carbazol-9-yl]benzamide] | < 1000
NC(=O)c1ccc(-n2c3ccccc3c3c(-c4nc5ccc(F)cc5[nH]4)cccc32)cc1NCCC1(O)CCCC1 [Example 71, 4-[4-(6-fluoro-1H-benzimidazol-2-yl)-9H-carbazol-9-yl]-2-[2-(1-hydroxycyclopentyl)ethylamino]benzamide] | < 1000
NC(=O)c1ccc(-n2c3ccccc3c3c(-c4cnc5ccccc5c4)cccc32)cc1NCCc1cccnc1 [Example 107, 2-[2-(pyridin-3-yl)ethylamino]-4-[4-(quinolin-3-yl)-9H-carbazol-9-yl]benzamide] | < 1000
NC(=O)c1ccc(-n2c3ccccc3c3c(-c4nc5ccc(F)cc5[nH]4)cccc32)cc1NCCc1ccccn1 [Example 79, 4-[4-(6-fluoro-1H-benzimidazol-2-yl)-9H-carbazol-9-yl]-2-[2-(pyridin-2-yl)ethylamino]benzamide] | < 1000
NC(=O)c1ccc(-n2c3ccccc3c3c(-c4cnc5ccccc5c4)cccc32)cc1NCc1cccnc1 [Example 105, 2-[(pyridin-3-ylmethyl)amino]-4-[4-(quinolin-3-yl)-9H-carbazol-9-yl]benzamide] | < 1000
NC(=O)c1ccc(-n2c3ccccc3c3c(-c4nc5ccc(F)cc5[nH]4)cccc32)cc1NC1CCCC(O)C1 [Example 89, 4-[4-(6-fluoro-1H-benzimidazol-2-yl)-9H-carbazol-9-yl]-2-(3(R,S)-hydroxycyclohexyl-1(R,S)-amino)benzamide] | < 1000
CC(C)(C)OC(=O)N1CCC(Nc2cc(-n3c4ccccc4c4c(-c5cnc6ccccc6c5)cccc43)ccc2C(N)=O)CC1 [Example 123] | 1000 to 10000
CN1CCC(O)(CNc2cc(-n3c4ccccc4c4c(-c5nc6ccc(F)cc6[nH]5)cccc43)ccc2C(N)=O)CC1 [Example 102, [4-(6-fluoro-1H-benzimidazol-2-yl)-9H-carbazol-9-yl]-2-[(4-hydroxy-1-methylpiperidin-4-ylmethyl)amino]benzamide] | 1000 to 10000
NC(=O)c1ccc(-n2c3ccccc3c3c(-c4nc5ccc(F)cc5[nH]4)cccc32)cc1NCC1(O)CCCC1 [Example 111, 4-[4-(6-fluoro-1H-benzimidazol-2-yl)-9H-carbazol-9-yl]-2-[(1-hydroxycyclopentan-1-yl)methylamino]benzamide] | < 1000
NC(=O)c1ccc(-n2c3ccccc3c3c(-c4cnc5ccccc5c4)cccc32)cc1N[C@H]1CCCC[C@H]1CO (racemic) [Example 101, 2-[1(S,R),2(R,S)-2-hydroxymethylcyclohexyl-1-amino]-4-[4-(quinolin-3-2-yl)-9H-carbazol-9-yl]benzamide] | < 1000
NC(=O)c1ncc(-n2c3ccccc3c3c(-c4cnc5ccccc5c4)cccc32)cc1NCCF [Example 129, 3-(2-fluoroethylamino)-5-[4-(quinolin-3-yl)-9H-carbazol-9-yl]pyridine-2-carboxamide] | < 1000
CC(C)(O)CNc1cc(-n2c3ccccc3c3c(-c4cnc5ccccc5c4)cccc32)ccc1C(N)=O [Example 91, (2-hydroxy-2-methylpropylamino)-4-[4-(quinolin-3-yl)-9H-carbazol-9-yl]-2-benzamide] | < 1000
NC(=O)c1ccc(-n2c3ccccc3c3c(-c4cncc(O)c4)cccc32)cc1N[C@H]1CC[C@H](O)CC1 [Example 73, 2-[(4-trans-hydroxycyclohexyl)amino]-4-[4-(5-hydroxypyridin-3-yl)-9H-carbazol-9-yl]benzamide] | < 1000
NC(=O)c1ccc(-n2c3ccccc3c3c(-c4nc5ccc(F)cc5[nH]4)cccc32)cc1NCc1cocn1 [Example 92, 4-[4-(6-fluoro-1H-benzimidazol-2-yl)-9H-carbazol-9-yl]-2-[(oxazol-4-ylmethyl)amino]benzamide] | < 1000
CC1(C)CC(Nc2cc(-n3c4ccccc4c4c(-c5cnc6ccccc6c5)cccc43)cnc2C(N)=O)CC(C)(C)N1 [Example 132, 5-[4-(quinolin-3-yl)-9H-carbazol-9-yl)-3-(2,2,6,6-tetramethylpiperidin-4-ylamino)pyridine-2-carboxamide] | 1000 to 10000

Compound | IC50 [nM]
CN1C(C)(C)CC(Nc2cc(-n3c4ccccc4c4c(-c5cnc6ccccc6c5)cccc43)cnc2C(N)=O)CC1(C)C [Example 122] | < 1000
NC(=O)c1ncc(-n2c3ccccc3c3c(-c4nc5ccc(F)cc5[nH]4)cccc32)cc1NC1CCOCC1 [Example 136] | < 1000
CC(C)(O)CNc1cc(-n2c3ccccc3c3c(-c4nc5ccc(F)cc5[nH]4)cccc32)ccc1C(N)=O [Example 90, 4-[4-(6-fluoro-1H-benzimidazol-2-yl)-9H-carbazol-9-yl]-2-(2-hydroxy-2-methylpropylamino)benzamide] | < 1000
NC(=O)c1ncc(-n2c3ccccc3c3c(-c4cnc5ccccc5c4)cccc32)cc1NCCc1ccccn1 [Example 133, 3-[(2-pyridin-2-yl)ethylamino)-5-[4-(quinolin-3-yl)-9H-carbazol-9-yl]pyridine-2-carboxamide] | < 1000
NC(=O)c1ccc(-n2c3ccccc3c3c(-c4nc5ccc(F)cc5[nH]4)cccc32)cc1NCCCF [Example 75, 4-[4-(6-fluoro-1H-benzimidazol-2-yl)-9H-carbazol-9-yl]-2-(3-fluoropropylamino)benzamide] | < 1000
NC(=O)c1ccc(-n2c3ccccc3c3c(-c4nc5cc(F)ccc5[nH]4)cccc32)cc1N[C@H]1CCCC[C@@H]1CO (single isomer, unassigned) [Example 130] | < 1000
NC(=O)c1ccc(-n2c3ccccc3c3c(-c4nc5ccc(F)cc5[nH]4)cccc32)cc1NCC1(O)CC1 [Example 114, 4-[4-(6-fluoro-1H-benzimidazol-2-yl)-9H-carbazol-9-yl]-2-[(1-hydroxycyclopropan-1-yl)methylamino]benzamide] | < 1000
NC(=O)c1ccc(-n2c3ccccc3c3c(-c4nc5ccc(F)cc5[nH]4)cccc32)cc1N[C@H]1CCC[C@H]1CO (racemic) [Example 118, 4-[4-(6-fluoro-1H-benzimidazol-2-yl)-9H-carbazol-9-yl]-2-[2(R,S)-hydroxymethylcyclopentan-1(S,R)-amino]benzamide] | < 1000
CN1CCC(O)(CCNc2cc(-n3c4ccccc4c4c(-c5nc6ccc(F)cc6[nH]5)cccc43)ccc2C(N)=O)CC1 [Example 70, 4-[4-(6-fluoro-1H-benzimidazol-2-yl)-9H-carbazol-9-yl]-2-[2-(4-hydroxy-1-methylpiperidin-4-yl)ethylamino]benzamide] | < 1000
COCCCOc1cc(-n2c3ccccc3c3c(-c4nc5ccc(F)cc5[nH]4)cccc32)ccc1C(N)=O [Example 60, 4-[4-(6-fluoro-1H-benzimidazol-2-yl)-9H-carbazol-9-yl]-2-(3-methoxypropoxy)benzamide] | 1000 to 10000
CN1C(C)(C)CC(Nc2cc(-n3c4ccccc4c4c(-c5cnc6ccccc6c5)cccc43)ccc2C(N)=O)CC1(C)C [Example 88, (1,2,2,6,6-pentamethyl-1H-piperidin-4-ylamino]-4-[4-(quinolin-3-yl)-9H-carbazol-9-yl]-2-benzamide] | < 1000
CN(C)CC(=O)O[C@H]1CC[C@H](Nc2cc(-n3c4ccccc4c4c(-c5nc6ccc(F)cc6[nH]5)cccc43)ccc2C(N)=O)CC1 [Example 140, dimethylaminoacetic acid 4-trans-{2-carbamoyl-5-[4(6-fluoro-1H-benzimidazol-2-yl)carbazol-9-yl]phenylamino}cyclohexyl ester] | < 1000
NC(=O)c1ccc(-n2c3ccccc3c3c(-c4cnc5ccccc5c4)cccc32)cc1NC1CCOCC1 [Example 113] | < 1000
NC(=O)c1ccc(-n2c3ccccc3c3c(-c4cnc5ccccc5c4)cccc32)cc1NC1CCNCC1 [Example 124, 2-(piperidin-4-ylamino)-4-[4-(quinolin-3-yl)-9H-carbazol-9-yl]benzamide hydrochloride] | < 1000
NC(=O)c1ccc(-n2c3ccccc3c3c(-c4ccc(C(F)(F)F)nc4)cccc32)cc1N[C@H]1CC[C@H](O)CC1 [Example 74, 2-[(4-trans-hydroxycyclohexyl)amino]-4-{4-[6-(trifluoromethyl)pyridin-3-yl]-9H-carbazol-9-yl}benzamide] | 1000 to 10000
NC(=O)c1ccc(-n2c3ccccc3c3c(-c4cnc5ccccc5c4)cccc32)cc1NCCn1ccnc1 [Example 87, 2-[2-(1H-imidazol-1-yl)ethylamino]-4-[4-(quinolin-3-yl)-9H-carbazol-9-yl]benzamide] | < 1000
Cn1cc(CNc2cc(-n3c4ccccc4c4c(-c5cnc6ccccc6c5)cccc43)ccc2C(N)=O)cn1 [Example 119, 2-[(1-methyl-1H-pyrazol-4-yl)methylamino]-4-[4-(quinolin-3-yl)-9H-carbazol-9-yl]benzamide] | < 1000
